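A five-concentration, 48-hour dose response in 96-well plates underlies each endpoint, interpolated linearly between surrounding concentrations. The concentration for 50% growth inhibition is given as GI50.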 Active and inactive are the calls of the source. Rule as the data show it: active = GI50 up to about 1.1 µM and inactive = higher.
Key:
Experiment in all cases: NCI-60 cell line screen, 48 h
HT-29 = tested on: HT-29
OVCAR-4 = tested on: OVCAR-4
NCI-H23 = tested on: NCI-H23
MDA-N = tested on: MDA-N
UACC-257 = tested on: UACC-257
A549 = tested on: A549
NCI-H226 = tested on: NCI-H226
CCRF-CEM = tested on: CCRF-CEM
SK-MEL-5 = tested on: SK-MEL-5
HCT-116 = tested on: HCT-116
Malme-3M = tested on: Malme-3M
CAKI-1 = tested on: CAKI-1
SNB-19 = tested on: SNB-19
786-0 = tested on: 786-0
NCI-H522 = tested on: NCI-H522
SW-620 = tested on: SW-620
MDA-MB-231 = tested on: MDA-MB-231
SK-OV-3 = tested on: SK-OV-3
OVCAR-3 = tested on: OVCAR-3
A498 = tested on: A498

Cc1ccc(C2=Nc3cccc4cccc(c34)N2)cc1
GI50 (HT-29): > 100 µM (inactive)
GI50 (OVCAR-4): > 100 µM (inactive)
GI50 (NCI-H23): > 100 µM (inactive)
GI50 (MDA-N): > 100 µM (inactive)
GI50 (UACC-257): > 100 µM (inactive)
GI50 (A549): > 100 µM (inactive)
GI50 (NCI-H226): > 100 µM (inactive)
GI50 (CCRF-CEM): > 100 µM (inactive)
GI50 (SK-MEL-5): > 100 µM (inactive)
GI50 (HCT-116): > 100 µM (inactive)
GI50 (Malme-3M): > 100 µM (inactive)
GI50 (CAKI-1): > 100 µM (inactive)
GI50 (SNB-19): > 100 µM (inactive)
GI50 (786-0): > 100 µM (inactive)
GI50 (NCI-H522): > 100 µM (inactive)
GI50 (SW-620): > 100 µM (inactive)
GI50 (MDA-MB-231): > 100 µM (inactive)
GI50 (SK-OV-3): > 100 µM (inactive)
GI50 (OVCAR-3): > 100 µM (inactive)

COc1cc(C2c3cc4c(cc3OC(NCCO)C2C)OCO4)cc(OC)c1O (stereo unspecified)
GI50 (HT-29): 7.11 µM (inactive)
GI50 (OVCAR-4): > 100 µM (inactive)
GI50 (NCI-H23): 24.6 µM (inactive)
GI50 (MDA-N): 1.61 µM (inactive)
GI50 (A549): 10.1 µM (inactive)
GI50 (NCI-H226): 49.3 µM (inactive)
GI50 (SK-MEL-5): 4.86 µM (inactive)
GI50 (HCT-116): 5.06 µM (inactive)
GI50 (Malme-3M): 6.37 µM (inactive)
GI50 (CAKI-1): 19.2 µM (inactive)
GI50 (SNB-19): 29.2 µM (inactive)
GI50 (786-0): 8.26 µM (inactive)
GI50 (NCI-H522): 3.27 µM (inactive)
GI50 (SW-620): 5.53 µM (inactive)
GI50 (MDA-MB-231): 7.23 µM (inactive)
GI50 (OVCAR-3): 5.2 µM (inactive)

Cc1ccc(/C=C2/N/C(=N\N=C/c3ccccc3)NC2=O)cc1
GI50 (HT-29): 46.3 µM (inactive)
GI50 (OVCAR-4): 14.8 µM (inactive)
GI50 (NCI-H23): 54.2 µM (inactive)
GI50 (MDA-N): 28.2 µM (inactive)
GI50 (UACC-257): > 100 µM (inactive)
GI50 (A549): 44.2 µM (inactive)
GI50 (NCI-H226): > 100 µM (inactive)
GI50 (SK-MEL-5): 35 µM (inactive)
GI50 (HCT-116): 28.6 µM (inactive)
GI50 (Malme-3M): 42.5 µM (inactive)
GI50 (CAKI-1): 38.5 µM (inactive)
GI50 (SNB-19): 25.8 µM (inactive)
GI50 (786-0): 20.3 µM (inactive)
GI50 (NCI-H522): 31.8 µM (inactive)
GI50 (SW-620): 41.6 µM (inactive)
GI50 (MDA-MB-231): 42.1 µM (inactive)
GI50 (SK-OV-3): 40.3 µM (inactive)
GI50 (OVCAR-3): 44.8 µM (inactive)

COc1ccccc1CNCCCCCNCCCCCCCCCCNCCCCCNCc1ccccc1OC
GI50 (HT-29): 96.6 µM (inactive)
GI50 (OVCAR-4): 79.1 µM (inactive)
GI50 (NCI-H23): 42.2 µM (inactive)
GI50 (MDA-N): 18.2 µM (inactive)
GI50 (A549): 23.4 µM (inactive)
GI50 (NCI-H226): 18.1 µM (inactive)
GI50 (CCRF-CEM): 13 µM (inactive)
GI50 (SK-MEL-5): 34.1 µM (inactive)
GI50 (HCT-116): 11.8 µM (inactive)
GI50 (Malme-3M): 24.8 µM (inactive)
GI50 (SNB-19): 38.1 µM (inactive)
GI50 (786-0): 23.9 µM (inactive)
GI50 (NCI-H522): 19.8 µM (inactive)
GI50 (SW-620): 34.4 µM (inactive)
GI50 (MDA-MB-231): 16.2 µM (inactive)
GI50 (OVCAR-3): 47 µM (inactive)

COc1ccc2[nH]cc(CCNC(=O)[C@H](Cc3ccccc3)NC(=O)[C@@H](NCC(F)(F)F)C(C)C)c2c1
GI50 (HT-29): 16.7 µM (inactive)
GI50 (OVCAR-4): 16.3 µM (inactive)
GI50 (NCI-H23): 25.3 µM (inactive)
GI50 (MDA-N): 18.2 µM (inactive)
GI50 (UACC-257): 19.7 µM (inactive)
GI50 (A549): 27 µM (inactive)
GI50 (NCI-H226): 21.4 µM (inactive)
GI50 (CCRF-CEM): 0.809 µM (active)
GI50 (HCT-116): 16.5 µM (inactive)
GI50 (Malme-3M): 21.6 µM (inactive)
GI50 (SNB-19): 28.6 µM (inactive)
GI50 (786-0): 18.1 µM (inactive)
GI50 (NCI-H522): 16.7 µM (inactive)
GI50 (SW-620): 28.5 µM (inactive)
GI50 (MDA-MB-231): 18.5 µM (inactive)
GI50 (SK-OV-3): 18.2 µM (inactive)
GI50 (OVCAR-3): 15.6 µM (inactive)

CCN(CC)CCCNc1nc(=O)[nH]c(C)c1C(=O)Nc1cccc2cc3ccccc3cc12
GI50 (HT-29): > 100 µM (inactive)
GI50 (OVCAR-4): > 100 µM (inactive)
GI50 (NCI-H23): > 100 µM (inactive)
GI50 (MDA-N): > 100 µM (inactive)
GI50 (UACC-257): > 100 µM (inactive)
GI50 (A549): > 100 µM (inactive)
GI50 (NCI-H226): > 100 µM (inactive)
GI50 (CCRF-CEM): > 100 µM (inactive)
GI50 (SK-MEL-5): > 100 µM (inactive)
GI50 (HCT-116): > 100 µM (inactive)
GI50 (Malme-3M): > 100 µM (inactive)
GI50 (CAKI-1): > 100 µM (inactive)
GI50 (SNB-19): > 100 µM (inactive)
GI50 (786-0): > 100 µM (inactive)
GI50 (NCI-H522): 85.3 µM (inactive)
GI50 (SW-620): > 100 µM (inactive)
GI50 (MDA-MB-231): 82.4 µM (inactive)
GI50 (SK-OV-3): > 100 µM (inactive)
GI50 (OVCAR-3): > 100 µM (inactive)

N#Cc1nc(CCCN2C(=O)c3ccccc3C2=O)oc1N
GI50 (HT-29): > 100 µM (inactive)
GI50 (OVCAR-4): > 100 µM (inactive)
GI50 (NCI-H23): > 100 µM (inactive)
GI50 (MDA-N): > 100 µM (inactive)
GI50 (UACC-257): > 100 µM (inactive)
GI50 (A549): > 100 µM (inactive)
GI50 (NCI-H226): > 100 µM (inactive)
GI50 (CCRF-CEM): > 100 µM (inactive)
GI50 (SK-MEL-5): > 100 µM (inactive)
GI50 (HCT-116): > 100 µM (inactive)
GI50 (Malme-3M): > 100 µM (inactive)
GI50 (CAKI-1): > 100 µM (inactive)
GI50 (SNB-19): > 100 µM (inactive)
GI50 (786-0): > 100 µM (inactive)
GI50 (NCI-H522): > 100 µM (inactive)
GI50 (SW-620): > 100 µM (inactive)
GI50 (MDA-MB-231): > 100 µM (inactive)
GI50 (SK-OV-3): > 100 µM (inactive)
GI50 (OVCAR-3): > 100 µM (inactive)

O=C(c1ccccc1)C1C[C@H]2CO[C@H](c3ccccc3)N2C1=O (stereo partly specified)
GI50 (HT-29): > 100 µM (inactive)
GI50 (OVCAR-4): > 100 µM (inactive)
GI50 (NCI-H23): > 100 µM (inactive)
GI50 (MDA-N): > 100 µM (inactive)
GI50 (UACC-257): > 100 µM (inactive)
GI50 (A549): > 100 µM (inactive)
GI50 (NCI-H226): > 100 µM (inactive)
GI50 (CCRF-CEM): 99.3 µM (inactive)
GI50 (SK-MEL-5): > 100 µM (inactive)
GI50 (HCT-116): > 100 µM (inactive)
GI50 (Malme-3M): > 100 µM (inactive)
GI50 (CAKI-1): > 100 µM (inactive)
GI50 (SNB-19): > 100 µM (inactive)
GI50 (786-0): > 100 µM (inactive)
GI50 (NCI-H522): > 100 µM (inactive)
GI50 (SW-620): > 100 µM (inactive)
GI50 (MDA-MB-231): > 100 µM (inactive)
GI50 (OVCAR-3): > 100 µM (inactive)

COc1ccc2oc(=O)c(-c3cc4c(c(C)n3)c(=O)oc3ccc(OC)cc34)cc2c1
GI50 (HT-29): 80.5 µM (inactive)
GI50 (NCI-H23): > 100 µM (inactive)
GI50 (MDA-N): > 100 µM (inactive)
GI50 (UACC-257): > 100 µM (inactive)
GI50 (A549): > 100 µM (inactive)
GI50 (NCI-H226): > 100 µM (inactive)
GI50 (CCRF-CEM): > 100 µM (inactive)
GI50 (SK-MEL-5): > 100 µM (inactive)
GI50 (HCT-116): > 100 µM (inactive)
GI50 (CAKI-1): 70.8 µM (inactive)
GI50 (SNB-19): 25.5 µM (inactive)
GI50 (786-0): 1.94 µM (inactive)
GI50 (NCI-H522): > 100 µM (inactive)
GI50 (SW-620): > 100 µM (inactive)
GI50 (MDA-MB-231): > 100 µM (inactive)
GI50 (SK-OV-3): > 100 µM (inactive)
GI50 (OVCAR-3): > 100 µM (inactive)

C#C[C@]1(O)CC[C@H]2[C@@H]3CCC4=C/C(=N/NC(=O)c5cccc6cc7ccccc7nc56)CC[C@@H]4[C@H]3CC[C@@]21CC
GI50 (HT-29): 41.4 µM (inactive)
GI50 (OVCAR-4): > 100 µM (inactive)
GI50 (NCI-H23): > 100 µM (inactive)
GI50 (MDA-N): 93.3 µM (inactive)
GI50 (UACC-257): > 100 µM (inactive)
GI50 (A549): 47 µM (inactive)
GI50 (NCI-H226): > 100 µM (inactive)
GI50 (CCRF-CEM): 40.5 µM (inactive)
GI50 (SK-MEL-5): 21.9 µM (inactive)
GI50 (HCT-116): 60.5 µM (inactive)
GI50 (CAKI-1): 29.3 µM (inactive)
GI50 (SNB-19): > 100 µM (inactive)
GI50 (786-0): 34.4 µM (inactive)
GI50 (SW-620): > 100 µM (inactive)
GI50 (MDA-MB-231): > 100 µM (inactive)
GI50 (A498): > 100 µM (inactive)
GI50 (SK-OV-3): > 100 µM (inactive)
GI50 (OVCAR-3): 75.5 µM (inactive)

COc1c(O)cc(O)c2c(=O)cc(-c3ccccc3)oc12 [WOGONIN]
GI50 (HT-29): 51.9 µM (inactive)
GI50 (OVCAR-4): 77.4 µM (inactive)
GI50 (NCI-H23): 42.6 µM (inactive)
GI50 (MDA-N): 84.7 µM (inactive)
GI50 (UACC-257): 87.9 µM (inactive)
GI50 (A549): 42.9 µM (inactive)
GI50 (NCI-H226): 40.9 µM (inactive)
GI50 (CCRF-CEM): 27 µM (inactive)
GI50 (SK-MEL-5): 34.2 µM (inactive)
GI50 (HCT-116): 24.3 µM (inactive)
GI50 (Malme-3M): 85.3 µM (inactive)
GI50 (CAKI-1): 48.6 µM (inactive)
GI50 (SNB-19): 58.7 µM (inactive)
GI50 (786-0): 51.9 µM (inactive)
GI50 (NCI-H522): 40.6 µM (inactive)
GI50 (SW-620): 54.1 µM (inactive)
GI50 (MDA-MB-231): > 100 µM (inactive)
GI50 (SK-OV-3): 77.8 µM (inactive)
GI50 (OVCAR-3): 24.5 µM (inactive)

— ChEMBL document CHEMBL1201862, “PubChem BioAssay data set” (2004)
